Data set [1] in a line: Cytotoxicity in H9c2 cells (CCK-8). The following applies: rat, H9c2 cells; H9c2 cell line. It is filed as cell-based. In a few lines: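 H9c2 cells were grown in DMEM with 10% FBS, seeded the day before, and exposed to a range of di-amidine concentrations for 24 h at 37 °C, 5% CO2. Viability was read by CCK-8 after 3 h at 37 °C as absorbance at 450 nm.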
The next data set concerns M. smegmatis. Briefly: MIC on mycobacteria. The conditions noted are these: Mycolicibacterium smegmatis, read-out: MIC on mycobacteria. The class given is cell-based, Mycobacterium smegmatis.
The subject of a further data set is HEK293 cells. Briefly: Cytotoxicity on mammalian cells (CCK-8), HEK293. The class given is cell-based. The conditions noted are these: for CC50: HEK293 cell line, 24 h; for pIC50: Homo sapiens. In a few lines: (§1)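 Cells seeded a day ahead to ~80% confluency, exposed to varied compound concentrations for 24 h at 37° C, 5% CO2. CCK-8 added for a further 2 h and OD 450 nm read; viability expressed as percent of untreated control.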

A further data set concerns NIH3T3 cells. Description: Cytotoxicity on mammalian cells (CCK-8), NIH3T3. The class given is cell-based. The conditions noted are these: 3T3 cell line; 24 h. In a few lines:
as §1

The test system of another data set is E. coli strain NR698. Briefly: Sensitization of outer membrane leaky E. coli strain NR698. It is filed as cell-based. As to the method:
Ery is short for erythromycin. […] E. coli NR698 was cultured with the antibiotic at various concentrations in the presence or absence of bacterial sensitizer for 24 h at 37° C. Then bacterial growth density was determined by measuring OD600. […] Then the growth density/% was calculated based on OD600.
Bacteria culture and MICs determination: Gram-negative bacteria were cultured in Mueller Hinton II cation-adjusted broth. Gram-positive bacteria were cultured in LB broth. Mycobacterium smegmatis was cultured in Middlebrook 7H9 Broth. MICs of antibiotics itself were determined by performing two-fold serial dilutions of antibiotics. MICs of antibiotics in the presence of bacterial sensitizers were determined by performing two-fold serial dilutions of antibiotics with or without a constant concentration of bacterial sensitizers. The MICs tests were performed on 96-well plates with a final volume of 200 μl Mueller Hinton II cation-adjusted broth in each well. Each well was inoculated with 5×10^5 CFU/ml bacteria and was incubated for 24 h at 37° C. with continuous shaking of 200 rpm. The bacterial density was then determined by OD600. Bacterial growth %=OD600 of antibiotic treatment group/OD600 of antibiotic non-treatment group. MICs was determined as the concentrations that inhibit more than 90% of bacteria growth.

Data set [2] relates to E. coli (lipid A part of LPS). Briefly: Dansyl-PMBN displacement assay. The class given is binding. The conditions noted are these: E. coli with 10 μM Dansyl-PMBN; sensitizer 0 to 200 μM. How it is done: Panel (C) depicts a Dansyl-PMBN displacement assay. […] The fluorescent intensity of 10 μM Dansyl-PMBN in HEPES buffer was recorded as baseline F0. Fluorescent intensity/%=(F1−Fx)/(F1−F0). […] All results are triplicates.
Dansyl-PMBN displacement assay. Dansyl-PMBN was synthesized according to literature procedure. Dansyl-PMBN was dissolved in H2O to make 500 μM stock. Bacterial sensitizers were dissolved in ethanol to make 10 mM stock solutions. […] The E. coli stock was centrifuged at 3000 g for 10 min, washed with HEPES buffer (pH=7.2) and then centrifuged again to obtain bacteria pallet. The pallet was then gently resuspended in HEPES buffer to obtain a E. coli suspension with OD600 about 0.3. The experiment was performed on 96-well plates. Each well was supplied with 100 μl coli suspension with 10 μM Dansyl-PMBN, then to each well, different concentrations of bacterial sensitizers were added to achieve a final concentration ranging from 0 to 200 μM.
Mg^2+ can bridge between adjacent lipid A and enhance the membrane integrity. […] This phenomenon was also observed on MD-100. The culture medium for E. coli is Muller Hinton Broth (Cation adjusted), which already has at least 0.5 mM Mg^2+, so the “zero concentration point of Mg^2+” in FIG. 4 represents the amount of exogenous Mg^2+, not the total Mg^2+ in the culture medium. […] A fluorescent conjugate of a polymyxin-B derivative (Dansyl-PMBN, Scheme 3), which would show increased fluorescent intensity after binding to the lipid A part of LPS, was used to further probe this issue. In the presence of another component that can also binding to lipid A, Dansyl-PMBN would be replaced, leading to decreased fluorescent intensity.

For another data set, the system named is E. coli. Description: Influence of exogenous LPS and Mg2+ on bacterial sensitizer. The conditions noted are these: for effect of extra LPS in culture media on sensitization: LPS 0 to 40 μM; for effect of Mg2+ on sensitization activity: exogenous Mg2+; for Sensitization fold: rifampicin. The class given is cell-based. How it is done:
The MICs of bacterial sensitizer and antibiotic combination in the presence of LPS (ranging from 0 to 40 μM) or Mg^2+ (ranging from 0 to 20 mM) was determined as described above (Bacteria culture and MICs determination section).
Various experiments were then conducted to examine the molecular target(s). […] Briefly, E. coli was treated with 5 μg/ml MD-124 (about 10 μM) with varying concentrations of LPS (from 0 to 40 μM) for 20 h. Then OD600 was measured.
Briefly, E. coli was treated with […] MD-124 (about 10 μM) with varying concentrations of Mg^2+ (from 0 to 15 mM) for 20 h. Then OD600 was measured.

pIC50: −log10 of the molar value. Counter-ions that a name gives are not always drawn. Like-named read-outs stand apart in the source and are kept apart here.

In data set [1], `Cc1cc(COc2ccc(C(=N)N)cc2)cc(COc2ccc(C(=N)N)cc2)c1` [MD-100, 4,4′-(((5-methyl-1,3-phenylene)bis(methylene))bis(oxy))dibenzimidamide dihydrochloride] had a CC50 at 24 h of 50 µM. The MIC with M. smegmatis turned out to be 12 µM. Also, in the data set with HEK293 cells, the CC50 was determined as 100 µM. This molecule also had a pIC50 with HEK293 cells (HEK293) of 4.00. This molecule also registered a half-maximal cytotoxic concentration (CC50) in the data set on NIH3T3 cells of 100 µM. The “sensitization of E. coli strain NR698” value in the data set with E. coli strain NR698 (erythromycin, MD-100, 24 h) is listed as “failed to sensitize”. Besides, in data set [2], the “displacement of Dansyl-PMBN (fluorescent intensity)” value is given as “able to displace Dansyl-PMBN although not as much as MD-124”. In the data set on E. coli, the “effect of extra LPS in culture media on sensitization” value was “abolished the sensitization effect” and the “effect of Mg2+ on sensitization activity” value is “decreased the sensitization ability”.

In data set [1], `N=C(N)c1ccc(COc2cc(OCc3ccc(C(=N)N)cc3)cc(C(F)(F)F)c2)cc1` [MD-124, 4,4′-(((5-(trifluoromethyl)-1,3-phenylene)bis(oxy))bis(methylene)) dibenzimidamide dihydrochloride] had a CC50 at 24 h of 50 µM. Moreover, the minimal inhibitory concentration (MIC) in the data set on M. smegmatis (M. smegmatis) amounted to 12 µM. Besides, the CC50 in the data set with HEK293 cells and in the data set with NIH3T3 cells was 100 µM throughout. For the same molecule, the pIC50 with HEK293 cells (HEK293 cells (Table 6), read-out: IC50) is 4.00. Also, the Sensitization fold in the data set with E. coli strain NR698 (E. coli NR698 towards clarithromycin, 5 μg/ml sensitizer) amounted to 4 fold; in the data set on E. coli (5 μg/ml MD-124, LPS 0 μM), 512 fold; in the data set with E. coli (5 μg/ml MD-124, LPS 5 μM), 4 fold; with E. coli (5 μg/ml MD-124, LPS 10 μM), 4 fold; with E. coli (5 μg/ml MD-124, LPS 20 μM), 2 fold; in the data set with E. coli (5 μg/ml MD-124, LPS 40 μM), 2 fold. For the same molecule, the Sensitization fold was found to be 8 fold in the data set with E. coli (5 μg/ml MD-124, LPS […]); 512 fold in the data set with E. coli (5 μg/ml MD-124, Mg2+ 0 mM); 8 fold in the data set with E. coli (5 μg/ml MD-124, Mg2+ 5 mM); 4 fold with E. coli (5 μg/ml MD-124, Mg2+ 10 mM); 2 fold in the data set on E. coli (5 μg/ml MD-124, Mg2+ 15 mM); 256 fold with E. coli (5 μg/ml MD-124, Mg2+ […]). In addition, the “displacement of Dansyl-PMBN (fluorescent intensity)” value in data set [2] is given as “steadily decreased in a concentration dependent fashion”. For the same molecule, the “MIC of rifampicin with 5 μg/ml MD-124” value turned out to be 0.02 with E. coli (LPS 0 μM, rifampicin only 10 μg/ml); 2.5 in the data set on E. coli (LPS 5 μM); 2.5 in the data set with E. coli (LPS 10 μM); 5 in the data set on E. coli (LPS 20 μM); 5 with E. coli (LPS 40 μM); 1.25 in the data set on E. coli (LPS […]). In addition, the “MIC of rifampicin with 5 μg/ml MD-124” value in the data set with E. coli (Mg2+ 0 mM, rifampicin only 10 μg/ml) is 0.02; with E. coli (Mg2+ 1.25 mM), 0.02; with E. coli (Mg2+ 5 mM), 1.25; with E. coli (Mg2+ 10 mM), 2.5; with E. coli (Mg2+ 15 mM), 5; in the data set with E. coli (Mg2+ […]) it was 0.04. Also, in the data set on E. coli, the “effect of extra LPS in culture media on sensitization” value was “abolished the sensitization effect”. Besides, in the data set with E. coli, the “effect of Mg2+ on sensitization activity” value is “dampened the bacterial sensitization activity”.

Values taken from US20230105108A1, “COMPOUNDS FOR THE TREATMENT OF BACTERIAL INFECTIONS AND POTENTIATION OF ANTIBIOTICS” (GEORGIA STATE UNIVERSITY RESEARCH FOUNDATION, INC., priority 2019, published 2023).
